In the assay the target is IGF1R (Homo sapiens, UniProt P08069). In words: Cellular IGF-1R assay: inhibition of IGF1R phosphorylation in transduced Hek293 cells, capture ELISA (MSD). In kind it is cell-based. More on the design: Hek293 cells transduced with the corresponding receptors; expressed in transfected cells; host or cells: Hek293 (Hek293-IGF1R). The protocol: In this assay the activity of the compounds of the invention against Insulin-like growth factor I (IGF-1) induced autophosphorylation of the IGF-IR is determined. The assay is conducted as follows: Compound-mediated inhibition of IGF1R and INSR phosphorylation in Hek293 cells transduced with the corresponding receptors is assessed in a capture ELISA format using the MSD (Meso Scale Discovery) platform. Briefly, 30′000 cells washed and diluted in starvation medium (DMEM high glucose supplemented with 0.1% BSA) are seeded in 90 μL per well into 96-well plates pre-coated with poly-D-lysine (0.1 mg/mL in PBS/0). After 24 h incubation at 37° C. and 5% CO2, dose-response effects are determined with 3-fold serial compound dilutions, starting at 10 μM. The final vehicle concentration is 0.1% DMSO in all wells. Following pre-incubation with compounds for 1 h, receptor phosphorylation is triggered by a 10 min exposure to 1.0 ng/μL IGF for Hek293-IGF1R cells, and 5.0 ng/μL insulin for Hek293-InsR cells. Cell lysis is achieved by addition of 80 μL MSD lysis buffer per aspirated well, incubation on ice for 20 min, and a freeze-thaw cycle. Target phosphorylation is then assessed by transferring volumes corresponding to approx. 6 μg Hek293-IGF1R or 0.6 μg Hek293-InsR lysates to MSD assay plates pre-coated with total-IGF1R or total-InsR Abs, respectively. After incubation for 2 h at rt, wells are exposed for 1 hr to a rabbit monoclonal antibody (CST #3024, 1:1000) detecting pIGF1R(Tyr1135/1136) as well as pINSR(Tyr1150/1151). Immune complexes are detected by a SULFO-Tag™-coupled anti-rabbit IgG antibody in the presence of 150 μL MSD read-buffer. Light emission at 620 nm triggered by application of electric current is recorded on a MSD SectorImager 6000. Acquired raw data (mean Ru-ECL units) are processed in an Excel analysis template. The plate blank (MSD lysis buffer) is subtracted from all data points. The effect of a particular test compound concentration on receptor phosphorylation is expressed relative to the window defined by ligand-stimulated vs unstimulated control cells (set as 100%). IC50 values [nM] are determined using 4-parametric curve-fitting (XLfit software, V4.3.2). Alternatively, the assay can be conducted with a slightly different format; Compound-mediated inhibition of IGF-1R and InsR phosphorylation in HEK293 cells overexpressing the corresponding receptors were assessed by quantitative Western blot using an Odyssey infrared imager as readout.
Sequence of IGF1R (P08069 31-1367): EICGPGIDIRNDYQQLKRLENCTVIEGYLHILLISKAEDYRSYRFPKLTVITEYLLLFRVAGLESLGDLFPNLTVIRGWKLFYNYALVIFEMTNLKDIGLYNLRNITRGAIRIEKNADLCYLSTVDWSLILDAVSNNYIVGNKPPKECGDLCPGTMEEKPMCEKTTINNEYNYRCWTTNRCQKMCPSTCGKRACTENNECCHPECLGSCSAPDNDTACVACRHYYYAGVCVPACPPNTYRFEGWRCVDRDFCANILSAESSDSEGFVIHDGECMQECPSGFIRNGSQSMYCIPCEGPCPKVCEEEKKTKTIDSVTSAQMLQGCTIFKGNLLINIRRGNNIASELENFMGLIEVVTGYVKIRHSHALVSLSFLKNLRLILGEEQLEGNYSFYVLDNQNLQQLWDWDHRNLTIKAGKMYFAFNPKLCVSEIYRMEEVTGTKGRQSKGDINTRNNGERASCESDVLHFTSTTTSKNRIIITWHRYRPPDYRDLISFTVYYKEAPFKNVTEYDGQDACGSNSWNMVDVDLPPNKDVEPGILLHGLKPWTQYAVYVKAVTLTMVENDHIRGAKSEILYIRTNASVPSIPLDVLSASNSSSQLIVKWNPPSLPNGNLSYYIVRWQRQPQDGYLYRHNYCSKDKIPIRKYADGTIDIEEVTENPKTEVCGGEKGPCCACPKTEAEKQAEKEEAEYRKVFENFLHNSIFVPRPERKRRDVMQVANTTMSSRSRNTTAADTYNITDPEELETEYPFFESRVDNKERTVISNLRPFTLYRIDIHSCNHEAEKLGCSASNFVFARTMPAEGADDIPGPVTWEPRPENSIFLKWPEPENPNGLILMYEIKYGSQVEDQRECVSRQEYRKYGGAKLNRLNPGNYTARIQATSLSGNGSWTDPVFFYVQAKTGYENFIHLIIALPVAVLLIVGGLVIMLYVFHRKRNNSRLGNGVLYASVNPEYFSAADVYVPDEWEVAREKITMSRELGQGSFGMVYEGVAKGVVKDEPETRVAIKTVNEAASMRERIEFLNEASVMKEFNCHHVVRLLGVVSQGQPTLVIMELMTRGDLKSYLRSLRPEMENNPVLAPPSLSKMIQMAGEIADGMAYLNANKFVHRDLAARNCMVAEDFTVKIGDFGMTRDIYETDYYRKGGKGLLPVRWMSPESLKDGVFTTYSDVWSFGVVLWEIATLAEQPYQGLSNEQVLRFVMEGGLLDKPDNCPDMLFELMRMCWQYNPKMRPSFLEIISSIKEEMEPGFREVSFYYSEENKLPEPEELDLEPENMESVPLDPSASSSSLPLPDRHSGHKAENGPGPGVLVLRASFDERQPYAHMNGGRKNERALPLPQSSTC
Compound-mediated inhibition of IGF1R and INSR phosphorylation in Hek293 cells transduced with the corresponding receptors is assessed in a capture ELISA format using the MSD (Meso Scale Discovery) platform. Briefly, 30′000 cells washed and diluted in starvation medium (DMEM high glucose supplemented with 0.1% BSA) are seeded in 90 μL per well into 96-well plates pre-coated with poly-D-lysine (0.1 mg/mL in PBS/O). After 24 h incubation at 37° C. and 5% CO2, dose-response effects are determined with 3-fold serial compound dilutions, starting at 10 μM. The final vehicle concentration is 0.1% DMSO in all wells. Following pre-incubation with compounds for 1 h, receptor phosphorylation is triggered by a 10 min exposure to 1.0 ng/μL IGF for Hek293-IGF1R cells, and 5.0 ng/μL insulin for Hek293-InsR cells. Cell lysis is achieved by addition of 80 μL MSD lysis buffer per aspirated well, incubation on ice for 20 min, and a freeze-thaw cycle. Target phosphorylation is then assessed by transferring volumes corresponding to approx. 6 μg Hek293-IGF1R or 0.6 μg Hek293-lnsR lysates to MSD assay plates pre-coated with total-IGF1R or total-lnsR Abs, respectively. After incubation for 2 h at rt, wells are exposed for 1 hr to a rabbit monoclonal antibody (CST #3024, 1:1000) detecting pIGF1R(Tyr1135/1136) as well as pINSR(Tyr1150/1151). Immune complexes are detected by a SULFO-Tag™-coupled anti-rabbit IgG antibody in the presence of 150 μL MSD read-buffer. […]

Structures are written as SMILES. Where only a bound is given, the exact number is not on record here.

For `NC(=O)[C@@H]1CCCN1C[C@H]1C[C@@H](c2nc(-c3ccc4c(c3)OC(c3ccccc3)CC4)c3c(N)nccn32)C1` (mixture of isomers) [Example 4, 1-{cis-3,8-Amino-1-((R)-2-phenyl-chroman-7-yl)-imidazo[1,5-a]pyrazin-3-yl]-cyclobutylmethyl}-(S)-pyrrolidine-2-carboxylic acid amide and 1-{cis-3-[8-amino-1-((S)-2-phenyl-chroman-7-yl)-imidazo[1,5-a]pyrazin-3-yl]-cyclobutylmethyl}-(S)-pyrrolidine-2-carboxylic acid amide], the concentration for half-maximal inhibition (IC50) – broadly, the point on the concentration scale where inhibition reaches its midpoint – turned out to be 346 nM. For `Nc1ncnc2c1c(-c1ccc3c(c1)OC(c1ccccc1)CC3)cn2[C@H]1C[C@@H](CN2CCC[C@H]2CO)C1` (mixture of isomers) [Example 14, (1-{cis-3-[4-Amino-5-((R)-2-phenyl-chroman-7-yl)-pyrrolo[2,3-d]pyrimidin-7-yl]-cyclobutylmethyl}-(S)-pyrrolidin-2-yl)-methanol and (1-{cis-3-[4-amino-5-[((S)-2-phenyl-chroman-7-yl)-pyrrolo[2,3-d]pyrimidin-7-yl]-cyclobutylmethyl}-(S)-pyrrolidin-2-yl)-methanol], the IC50 is less than 5 nM. With `Nc1ncnc2c1c(-c1ccc3c(c1)OC(C1CCCO1)CC3)cn2C1CC(O)(CO)C1` (mixture of isomers) [Example 29, (E)-3-{4-Amino-5-[2-(tetrahydro-furan-2-yl)-chroman-7-yl]-pyrrolo[2,3-d]pyrimidin-7-yl}-1-hydroxymethyl-cyclobutanol] the figure was 50 nM. With `Nc1ncnc2c1c(-c1ccc3c(c1)OC(C1CCCO1)CC3)cn2C1CC(CN2CC3CC2CS3(=O)=O)C1` (mixture of isomers) [Example 66, 7-[cis-3-((S,S)-2,2-dioxo-2λ6-thia-5-aza-bicyclo[2,2,1]hept-5-ylmethyl)-cyclobutyl]-5-[2-trans-(tetrahydro-furan-2-yl-chroman-7-yl)-7H-pyrrolo[2,3-d]pyrimidin-4-ylamine] the figure was 24 nM. With `Nc1ncnc2c1c(-c1ccc3c(c1)OC(C1CCCO1)CC3)cn2C1CC(CN2CC3CC2CS3(=O)=O)C1` (mixture of isomers) [Example 67, 7-[cis-3-((S,S)-2,2-dioxo-2λ6-thia-5-aza-bicyclo[2,2,1]hept-5-ylmethyl)-cyclobutyl]-5-[2-cis-(tetrahydro-furan-2-yl-chroman-7-yl)-7H-pyrrolo[2,3-d]pyrimidin-4-ylamine] the figure was 17 nM; with `Nc1ncnc2c1c(-c1ccc3c(c1)OC(c1ccccc1)CC3)cn2[C@H]1C[C@@H](CO)C1` (mixture of isomers) [Example 1, (R,S)-{cis-3-[4-Amino-5-(2-phenyl-chroman-7-yl)-pyrrolo[2,3-d]pyrimidin-7-yl]-cyclobutyl}-methanol], 11 to 22 nM; with `Nc1ncnc2c1c(-c1ccc3c(c1)OC(c1ccccc1)CC3)cn2[C@H]1C[C@H](CO)C1` (mixture of isomers) [Example 2, (R,S)-{Trans-3-[4-amino-5-(2-phenyl-chroman-7-yl)-pyrrolo[2,3-d]pyrimidin-7-yl]-cyclobutyl}-methanol], 30 to 103 nM. For the compound `Nc1nccn2c1c(-c1ccc3c(c1)OC(c1ccccc1)CC3)nc2[C@H]1C[C@@H](CO)C1` (mixture of isomers) [Example 3, (R,S)-{cis-3-[8-Amino-1-(2-phenyl-chroman-7-yl)-imidazo[1,5-a]pyrazin-3-yl]-cyclobutyl}-methanol], 76 nM corresponded to half-maximal inhibition (IC50). `Nc1ncnc2c1c(-c1ccc3c(c1)OC(c1ccccc1)CC3)cn2[C@H]1C[C@@H](CN2CCS(=O)(=O)CC2)C1` (mixture of isomers) [Example 6, (R,S)-7-[cis-3-(1,1-Dioxo-thiomorpholin-4-ylmethyl)-cyclobutyl]-5-(2-phenyl-chroman-7-yl)-7H-pyrrolo[2,3-d]pyrimidin-4-ylamine] returned an IC50 of 3 nM. `Cc1nccn1C[C@H]1C[C@@H](c2nc(-c3ccc4c(c3)OC(c3ccccc3)CC4)c3c(N)nccn32)C1` (mixture of isomers) [Example 7, (R,S)-3-[cis-3-(2-Methyl-imidazol-1-ylmethyl)-cyclobutyl]-1-(2-phenyl-chroman-7-yl)-imidazo[1,5-a]pyrazin-8-ylamine] showed an IC50 of 26 nM. With `Nc1ncnc2c1c(-c1ccc3c(c1)OC(c1ccccc1)CC3)cn2[C@H]1C[C@@](O)(CO)C1` (mixture of isomers) [Example 8, (R,S)-(E)-3-[4-Amino-5-(2-phenyl-chroman-7-yl)-pyrrolo[2,3-d]pyrimidin-7-yl]-1-hydroxymethyl-cyclobutanol] the figure was 95 nM. With `Nc1ncnc2c1c(-c1ccc3c(c1)OC(c1ccccc1)CC3)cn2[C@H]1C[C@](O)(CO)C1` (mixture of isomers) [Example 9, (R,S)—(Z)-3-[4-amino-5-(2-phenyl-chroman-7-yl)-pyrrolo[2,3-d]pyrimidin-7-yl]-1-hydroxymethyl-cyclobutanol] the figure was 158 nM; with `NC[C@H]1C[C@@H](n2cc(-c3ccc4c(c3)OC(c3ccccc3)CC4)c3c(N)ncnc32)C1` (mixture of isomers) [Example 13, (R,S)-7-(cis-3-Aminomethyl-cyclobutyl)-5-(2-phenyl-chroman-7-yl)-7H-pyrrolo[2,3-d]pyrimidin-4-ylamine], 39 nM. With `Nc1ncnc2c1c(-c1ccc3c(c1)OC(c1ccccc1)CC3)cn2[C@H]1C[C@@H](Cn2ccnc2CO)C1` (mixture of isomers) [Example 18, (R,S)-(1-{cis-3-[4-Amino-5-(2-phenyl-chroman-7-yl)-pyrrolo[2,3-d]pyrimidin-7-yl]-cyclobutylmethyl}-1H-imidazol-2-yl)-methanol] the figure was 14 nM. On to `Nc1ncnc2c1c(-c1ccc3c(c1)OC(c1ccccc1)C=C3)cn2[C@H]1C[C@@H](CO)C1` (mixture of isomers) [Example 23, (R,S)-{cis-3-[4-Amino-5-(2-phenyl-2H-chromen-7-yl)-pyrrolo[2,3-d]pyrimidin-7-yl]-cyclobutyl}-methanol], for which half-maximal inhibition (IC50) was put at 12 nM. The IC50 values of the last two compounds are within 1.5-fold of each other.

In the case of `Nc1ncnc2c1c(-c1ccc3c(c1)OC(c1ccccc1)CC3)cn2[C@H]1C[C@@H](CN2CCNC(=O)C2)C1` (mixture of isomers) [Example 28, (R,S)-4-{3-[4-amino-5-(2-phenyl-chroman-7-yl)-pyrrolo[2,3-d]pyrimidin-7-yl]-cyclobutylmethyl}-piperazin-2-one], the IC50 turned out to be 34 nM. In the case of `Nc1ncnc2c1c(-c1ccc3c(c1)OC(c1ccccc1)CC3)cn2[C@H]1C[C@@H](CN2[C@@H]3CC[C@H]2C[C@H](O)C3)C1` (mixture of isomers) [Example 36, (R,S)-8-{cis-3-[4-Amino-5-(2-phenyl-chroman-7-yl)-pyrrolo[2,3-d]pyrimidin-7-yl]-cyclobutylmethyl}-8-aza-bicyclo[3.2.1]octan-3-ol] it was 87 nM; in that of `Nc1ncnc2c1c(-c1ccc3c(c1)OC(c1ccccc1)CC3)cn2[C@H]1CC[C@@H](NC(=O)C2CC2)CC1` (mixture of isomers) [Example 51, (±)-N-(cis-4-(4-amino-5-(2-phenylchroman-7-yl)-7H-pyrrolo[2,3-d]pyrimidin-7-yl)cyclohexyl)cyclopropanecarboxamide], 136 nM; in that of `CC(C)C(=O)N[C@H]1CC[C@@H](n2cc(-c3ccc4c(c3)OC(c3ccccc3)CC4)c3c(N)ncnc32)CC1` (mixture of isomers) [Example 52, (±)-N-(cis-4-(4-amino-5-(2-phenylchroman-7-yl)-7H-pyrrolo[2,3-d]pyrimidin-7-yl)cyclohexyl)isobutyramide], 99 nM.

These data come from patent publication US20120289501A1, “Benzene-fused 6-membered oxygen-containing heterocyclic derivatives of bicyclic heteroaryls” (NOVARTIS AG, priority 2009, published 2012).
